Experimental data reported in article PMC10765884, “MC180295 is a highly potent and selective CDK9 inhibitor with preclinical in vitro and in vivo efficacy in cancer” (Clinical Epigenetics, 2024).
Entries after “also recorded” stand apart in the source; their conditions may differ.

Tests used:
CDK9 = target: T1, CDK9 (Homo sapiens, UniProt P50750); assay: CDK9 inhibitory activity of MC180295 and its enantiomers; assay type: biochemical; conditions: Fig. S3E
T1 construct: purchased Reaction Biology Corp
T1 sequence (P50750 whole entry): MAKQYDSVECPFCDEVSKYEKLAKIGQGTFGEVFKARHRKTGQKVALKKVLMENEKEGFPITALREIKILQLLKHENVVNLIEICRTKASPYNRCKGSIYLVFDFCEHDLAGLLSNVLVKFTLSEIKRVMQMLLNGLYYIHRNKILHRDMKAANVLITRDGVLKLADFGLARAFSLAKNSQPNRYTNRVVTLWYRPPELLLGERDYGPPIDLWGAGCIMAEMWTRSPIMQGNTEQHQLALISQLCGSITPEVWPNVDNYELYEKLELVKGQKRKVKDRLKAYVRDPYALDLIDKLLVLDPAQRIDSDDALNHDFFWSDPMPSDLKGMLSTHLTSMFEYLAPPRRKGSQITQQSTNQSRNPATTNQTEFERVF
T1 sequence (O60563 whole entry partner): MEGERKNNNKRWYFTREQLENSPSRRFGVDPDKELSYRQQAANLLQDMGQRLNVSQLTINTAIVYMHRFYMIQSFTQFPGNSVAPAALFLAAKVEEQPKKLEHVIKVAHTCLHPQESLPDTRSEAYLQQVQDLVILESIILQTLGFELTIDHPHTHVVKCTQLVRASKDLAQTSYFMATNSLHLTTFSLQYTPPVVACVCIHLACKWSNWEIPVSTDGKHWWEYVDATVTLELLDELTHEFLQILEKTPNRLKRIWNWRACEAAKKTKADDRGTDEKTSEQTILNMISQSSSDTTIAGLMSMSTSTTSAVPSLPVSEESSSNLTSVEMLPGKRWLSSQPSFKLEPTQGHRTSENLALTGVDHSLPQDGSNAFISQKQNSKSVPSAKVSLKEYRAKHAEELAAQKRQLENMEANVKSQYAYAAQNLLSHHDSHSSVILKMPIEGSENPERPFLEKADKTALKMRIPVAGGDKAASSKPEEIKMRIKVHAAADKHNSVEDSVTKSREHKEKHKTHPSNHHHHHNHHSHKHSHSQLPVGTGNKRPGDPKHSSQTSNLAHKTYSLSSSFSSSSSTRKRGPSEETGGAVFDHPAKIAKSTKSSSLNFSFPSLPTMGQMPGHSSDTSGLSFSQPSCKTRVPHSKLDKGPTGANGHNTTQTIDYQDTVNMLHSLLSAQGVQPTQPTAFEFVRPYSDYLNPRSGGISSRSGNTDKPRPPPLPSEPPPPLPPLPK
Procedure: CDK enzymatic assays were performed by Reaction Biology Corp. (Malvern, PA), using 10 µM ATP for determining MC180295 IC50 values for each CDK family member for which assays were available. Kinase enzymatic assays were also performed by Nanosyn (Santa Clara, CA), using microfluidic technology and MC180295 IC50 curves against 10 CDKs. Selectivity against CDK9 was confirmed for the enantiomers at Reaction Biology Corp. (Malvern, PA).

[1] = system: GFP silenced by a methylated CMV promoter in YB5 cells; assay: Live-cell assay for GFP reactivation in YB5 cells; assay type: cell-based; conditions: for lowest concentration reactivating GFP: after 24 h treatment, FACS
Procedure: To identify novel epigenetic targets, we previously used a phenotype-based screen, the YB5 SW48 daughter cell line reporter system, to identify drugs that can reactivate GFP silenced by a methylated CMV promoter. […] […]. To better understand MC180295's antitumor effects, we tested its growth inhibition in a panel of cancer cell lines.
The live-cell assay for GFP reactivation in YB5 cells was done as previously described. Cells were treated with a single dose of drug 24 h after seeding at low density, and GFP fluorescence measured in a Millipore Guava flow cytometer (EMD, Millipore) instrument, or by imaging in a Cytation instrument (Agilent). Cancer cell lines (listed in Additional file 1: Fig. S1A) were obtained from ATCC or the Temple/Fox Chase Cellular Repository and cultured in the recommended medium. To measure growth inhibition, cells were seeded in 96-well plates at 40% confluency. Fresh medium was changed the next day and drugs were added directly. Drug-free fresh medium was changed on the fourth day. The cells were collected on day 5 by trypsin, suspended in medium, mixed with trypan blue (Thermo Fisher Scientific) (1:1 ratio), and counted using a LUNA II automated cell counter. Each sample was counted at least three times, and average numbers used for the analysis. Each treatment condition was performed in biological triplicates.

SW48 cells = assay: SW48 colon cancer xenograft in NSG mice; assay type: in vivo; conditions: for survival / tumor growth / tumor size: SW48 s.c. in NSG mice, 20 mg/kg i.p. q.o.d.; for tumor growth / tumor size: vs vehicle
Procedure: Fig. 3 Antitumor, survival, and metabolic effects of MC180295 and its enantiomers, MC180379 and MC180380. A Antitumor effects of MC180295, MC180379, and MC180380. NSG mice were inoculated (s.c.) with 2 × 10^6 SW48 cells. Eleven days later, when tumors were palpable, 20 mg/kg MC180295, MC180379, MC180380, or vehicle were administered (i.p.) every other day (q.o.d.). Tumor sizes were measured using a caliper. […] . C Antitumor effects of MC180379 and MC180380. NSG mice were inoculated (s.c.) with 1 × 10^6 HT29 cells. Twelve days later, when tumors were palpable, 20 mg/kg MC180379, MC180380, or vehicle were administered (i.p.) q.o.d. Tumor sizes were measured using a caliper. D HT29-xenografted mouse survival following (i.p.) q.o.d. dosing with 20 mg/kg MC180379 or MC180380. E NSG mice were inoculated (i.p.) with 5 × 10^5 MV4-11-luc cells. Four days later, when substantial tumor burden was evident by bioluminescence imaging, MC180379, MC180380, or vehicle were administered (i.p.) q.o.d at 20 mg/kg. Luciferase expression was quantified and calculated. F Mouse survival in days. […] G In vitro liver microsome stability and rat hepatocyte/Sprague–Dawley stability assay comparing MC180379 to MC180380. The dog breed was beagle and the mouse microsome strain was CD-1. All sexes (including the hepatocytes) were male except the human microsomes which were mixed gender. Significances were calculated using log-rank (Mantel-Cox) or Student’s t tests.
Fig. 4 Antitumor and survival-extending properties of a hypomethylating agent (DAC) combined with MC180295. A Antitumor effects of MC180295 and MC180295 + DAC. NSG mice were inoculated (s.c.) with 2 × 10^6 SW48 cells. Eleven days later, when tumors were palpable, 20 mg/kg MC180295 or vehicle were administered (i.p.) q.o.d. 0.5 mg/kg DAC was administered (i.p.) daily. Tumor sizes were measured using a caliper. B Mouse survival in days. 20 mg/kg MC180295 was administered (i.p.) q.o.d. 0.5 mg/kg DAC was administered (i.p.) daily. C NSG mice were inoculated (i.p.) with 5 × 10^5 MV4-11-luc cells. Four days later, when substantial tumor burden was evident by bioluminescence imaging, MC180295 (20 mg/kg) or vehicle were administered (i.p.) every other day. 0.5 mg/kg DAC was administered (i.p.) daily. Luciferase expression was quantified and calculated. […] E Antitumor effects of MC180380 and MC180380 + DAC. NSG mice were inoculated (s.c.) with 2 × 10^6 SW48 cells. Eleven days later, when tumors were palpable, 10 mg/kg MC180380, 20 mg/kg MC180380, or vehicle was administered (i.p.) q.o.d. 0.5 mg/kg DAC was administered (i.p.) daily. Mouse survival shown in days. Significances were calculated using log-rank (Mantel-Cox) or Student's t tests. Data are shown as means ± SEMs. ***p < 0.001
For the s.c. SW48 model, 2 × 10^6 cells were injected into the flanks of randomly assigned, gender-matched 8–10-week-old NSG mice.

SMILES	IC50 (CDK9) [µM]	lowest concentration reactivating GFP [1] [nM]	survival (SW48 cells)	tumor growth / tumor size (SW48 cells; 20 mg/kg)	tumor growth / tumor size (SW48 cells; listed as MC190295, 20 mg/kg)	survival (SW48 cells; 20 mg/kg)	potency in inducing GFP (comparison of enantiomers) ([1]; 24 h and 4 days after one-time treatment)	overall survival, dose comparison (SW48 cells; SW48 in NSG mice, 10 or 20 mg/kg MC180380 i.p. q.o.d.)
Nc1nc(N[C@@H]2C[C@H]3CC[C@@H]2C3)sc1C(=O)c1ccccc1[N+](=O)[O-] [MC180379]	0.011	500	no survival difference	–	–	–	–	–
Nc1nc(N[C@H]2C[C@@H]3CC[C@H]2C3)sc1C(=O)c1ccccc1[N+](=O)[O-] (relative stereo) [MC180295]	0.011	100	–	significantly reduce tumor size	no statistical difference in tumor size	prolong overall survival	–	–
Nc1nc(N[C@H]2C[C@@H]3CC[C@H]2C3)sc1C(=O)c1ccccc1[N+](=O)[O-] [MC180380]	0.009	100	–	–	–	no survival difference	more potent than MC18379 in inducing GFP; also recorded: epigenetically more potent than MC180379	20 mg/kg led to better overall survival than 10 mg/kg
